Results on one compound are retold here after publication PMC1925065, “Functional characterization of two melanocortin (MC) receptors in lamprey showing orthology to the MC1 and MC4 receptor subtypes” (BMC Evolutionary Biology, 2007).

One experiment has as its target human MC5. As to conditions: saturation, [125I] NDP-MSH; mean ± SEM; ref [39]; cited from earlier work.
The target in the next experiment is human MC3. Conditions: saturation, [125I] NDP-MSH; mean ± SEM; ref [42]; cited from earlier work.
In experiment [1] the test system is Non-transfected cells (HEK-293 EBNA). Description: Radioligand binding, non-transfected cells. The arrangement: species or system human. Conditions: [125I] NDP-MSH. The procedure: HEK-293 EBNA cells expressing MC receptors were harvested from plate and resuspended in binding buffer composed of 25 mM HEPES, 2.5 mM CaCl2, 1 mM MgCl2 and 0.2% bacitracin, pH adjusted to 7.4. To obtain the membranes, cells were mechanically homogenized with Ultra Turrax. Cell suspensions were centrifuged for 3 min at 190 g and membranes were collected from the supernatant by centrifugation for 15 min at 20000 g. The pellet was resuspended in binding buffer. The binding was performed in a final volume of 100 μl for 2 h at room temperature. Saturation experiments were carried out with serial dilutions of [^125I] NDP-MSH { [Nle^4, D-Phe^7]α-MSH}, labelled by the Chloramine-T method. Non-specific binding was determined in the presence of 1 μM unlabeled NDP-MSH. Competition experiments were performed with constant 0.6 nM concentration of [^125I] NDP-MSH and serial dilutions of competing unlabelled human ligands: NDP-MSH, α-MSH, β-MSH, γ1-MSH, ACTH (1–17) ACTH (1–24) ACTH (1–39), MTII, HS024) (Neosystem, France) and lamprey ligands: MSH-A, MSH-B, ACTH(1–31). […] MeltiLex A scintillator sheets (Perkin Elmer, USA) were melted on dried filters and radioactivity was counted with an automatic Microbeta counter 1450 (Perkin Elmer). […] The results were analysed with Prism 3.0 software package (GraphPad, USA). […]

The next experiment deals with T1, lamprey MCa receptor (Lampetra fluviatilis, UniProt A6XB56).
T1 sequence (A6XB56 1-341): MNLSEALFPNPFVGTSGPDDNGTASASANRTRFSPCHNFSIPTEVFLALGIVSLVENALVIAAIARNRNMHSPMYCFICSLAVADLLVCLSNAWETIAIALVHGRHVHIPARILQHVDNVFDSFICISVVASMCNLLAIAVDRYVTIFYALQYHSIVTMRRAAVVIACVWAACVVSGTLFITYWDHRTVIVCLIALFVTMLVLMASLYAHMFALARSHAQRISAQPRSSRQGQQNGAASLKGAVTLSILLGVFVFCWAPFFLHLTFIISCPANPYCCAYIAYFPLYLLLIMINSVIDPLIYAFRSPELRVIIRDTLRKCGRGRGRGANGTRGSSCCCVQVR
As to the kind of experiment: Radioligand binding assay (saturation and competition, [125I] NDP-MSH), lamprey MCa. On the set-up: species or system river lamprey. Conditions: read-out: Kd (mean ± SEM) from saturation curves, lamprey MCa; HEK-293 EBNA membranes, pH 7.4, 2 h, room temperature; non-specific binding with unlabelled NDP-MSH; mean ± SEM, duplicate, at least three independent experiments. The method, then: HEK-293 (human embryonic kidney) cells with Epstein-Barr nuclear antigen (EBNA) grown to 50–70% confluence were transfected with 10 μg of the construct using FuGENE-6 Transfection Reagent (Roche, Sweden) according to the manufacturers' instruction. The cells were grown in Dulbeccos Modified Eagle Media and F-12 Nutrient Mixture (D-MEM/F-12) (1:1) with GlutaMAX I containing 10% foetal bovine serum, 100 u/ml penicillin, 100 μg/ml streptomycin, 2.5 ug/ml amphotericin B, and 250 μg/ml geneticin G-418 (Invitrogen); in humidified atmosphere of 95% air and 5% CO2 at 37°C. Semi-stable cell lines, expressing target receptor, were obtained by selecting for growth in the presence of 100 μg/ml hygromycin B (Invitrogen), first added 24 hours after transfection.
HEK-293 EBNA cells expressing MC receptors were harvested from plate and resuspended in binding buffer composed of 25 mM HEPES, 2.5 mM CaCl2, 1 mM MgCl2 and 0.2% bacitracin, pH adjusted to 7.4. To obtain the membranes, cells were mechanically homogenized with Ultra Turrax. Cell suspensions were centrifuged for 3 min at 190 g and membranes were collected from the supernatant by centrifugation for 15 min at 20000 g. The pellet was resuspended in binding buffer. The binding was performed in a final volume of 100 μl for 2 h at room temperature. Saturation experiments were carried out with serial dilutions of [^125I] […] Competition experiments were performed with constant 0.6 nM concentration of [^125I] […] The membranes were collected by filtration on Glass Fibre filters, Filtermat A (Perkin Elmer, USA), using a TOMTEC Mach III cell harvester (Orange, CT, USA). The filters were washed with 5 ml per well of 50 mM Tris HCl (pH 7.4) and dried at 50°C. MeltiLex A scintillator sheets (Perkin Elmer, USA) were melted on dried filters and radioactivity was counted with an automatic Microbeta counter 1450 (Perkin Elmer). Binding assays were performed in duplicate with at least three independent experiments. […] The results were analysed with Prism 3.0 software package (GraphPad, USA). Binding affinities were compared with one-way ANOVA Tukey's post-hoc tests.

The target of a further experiment is human MC1. As to conditions: saturation, [125I] NDP-MSH; mean ± SEM; ref [38]; cited from earlier work.
Another experiment concerns the target human MC4. As to conditions: saturation, [125I] NDP-MSH; mean ± SEM; ref [42]; cited from earlier work.

Molecules are shown by their SMILES.

As for `CCCC[C@H](NC(=O)[C@H](CO)NC(=O)[C@H](Cc1ccc(O)c(I)c1)NC(=O)[C@H](CO)NC(C)=O)C(=O)N[C@@H](CCC(=O)O)C(=O)N[C@@H](Cc1c[nH]cn1)C(=O)N[C@H](Cc1ccccc1)C(=O)N[C@@H](CCCNC(=N)N)C(=O)N[C@@H](Cc1c[nH]c2ccccc12)C(=O)NCC(=O)N[C@@H](CCCCN)C(=O)N1CCC[C@H]1C(=O)N[C@H](C(N)=O)C(C)C` [[^125I] NDP-MSH, [Nle^4, D-Phe^7]α-MSH], the Kd at human MC5 was 5.05 ± 1 nM; on human MC3, 0.412 ± 0.121 nM; at lamprey MCa receptor, 2.46 ± 0.68 nM; on human MC1, 0.109 ± 0.062 nM; at human MC4, 1.78 ± 0.36 nM. In experiment [1], the “specific binding, non-transfected cells” value is given as “did not show any specific binding”.
